Assay results: patent publication US12350382B2, “Method for preparing particles comprising metal oxide coating and particles with metal oxide coating” (priority 2007, dated 2025)

Assay: Analytical evaluation of the BPO release out of the silica shell (time for yellow color appearance, KI/sodium thiosulfate)
Format: physicochemical
Conditions: free (uncoated) BPO, 0 coatings, no aging
Protocol: The release profile of BPO out of the silica shell was done in a water/Acetonitrile solution, which is capable of dissolving BPO. The method is based on the strong oxidation properties of BPO. BPO reacts with potassium iodine (KI) ions to form I2, which gives a color reaction. I2 is than reduces back to I^− using sodium thiosulfate (STS) to eliminate the color. Each 12.11 mg of oxidizing BPO was reduced by 1 ml of 0.1M STS.
Solution A is composed of deionized water, acetone, 0.1M STS solution and KI.
The following table includes the ratios between the components in order to distinguish a certain % of released BPO.
Suspension B, preparation of BPO: weigh 200 mg of BPO as 100% (1 g as 20% suspension) into 5 ml measuring bottle and fill with deionized water up to 5 ml.
Procedure: Into 50 ml glass beaker add 40 ml of solution A and the 5 ml of suspension B and measure the time for yellow color appearance.

time for 30 % of BPO released: 0.5 min
time for 90 % of BPO released: 1 min
Structure (SMILES): O=C(OOC(=O)c1ccccc1)c1ccccc1 [Free BPO, benzoyl peroxide]
